Positions count from the first letter of the chain named.
Tests used:
Experiment in all cases: Saturation binding of WK(FITC)YMVm, flow cytometry on HEK293F cells
[1] = biological target: T1, wild-type (WT) and mutant FPR2 (Homo sapiens, UniProt P25090, L81F); conditions: FPR2 L81F
T1 construct: expressed in transfected cells; host or cells: HEK293F
T1 sequence (P25090 1-351 L81F): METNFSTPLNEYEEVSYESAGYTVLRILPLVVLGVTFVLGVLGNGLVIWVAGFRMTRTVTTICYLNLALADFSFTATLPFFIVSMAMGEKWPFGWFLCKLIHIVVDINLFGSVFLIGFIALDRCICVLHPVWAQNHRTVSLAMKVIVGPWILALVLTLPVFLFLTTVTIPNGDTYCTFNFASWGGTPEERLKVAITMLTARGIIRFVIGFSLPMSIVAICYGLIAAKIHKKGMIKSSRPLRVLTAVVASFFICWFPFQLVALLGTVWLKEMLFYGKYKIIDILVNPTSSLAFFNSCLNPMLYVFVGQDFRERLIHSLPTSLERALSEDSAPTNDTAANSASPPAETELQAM
Method: (§1) Flag-tagged wild-type and mutant FPR2s were cloned into the pTT5 vector and expressed in HEK293F cells. The cells were harvested, and washed with Hanks’ Balanced Salt Solution (HBSS) buffer supplemented with 0.5% bovine serum albumin and 20 mM HEPES, pH 7.4. The cells were then resuspended in the same buffer to the final concentration of 1 × 10^6 cells per ml. The cell-surface expression was measured as mentioned above. […] Mean fluorescent intensity of each well was then read by a FCM (flow cytometry) reader (Millipore). […] For competitive binding of fMLFK, cells were plated in 96-well plates (100,000 cells per well), and incubated with WK(FITC)YMVm at 4 °C for 1 h. The following concentrations of WK(FITC)YMVm were used: 10 nM (wild type, L81^2.60F, E89G, and V105^3.32A), 30 nM (D281^7.32G), 40 nM (H102^3.29F, V160^4.60A, L268^ECL3A, N285^7.36A, and F292^7.43A), and 100 nM (L164^4.64A and T177A). Then increasing concentrations of fMLFK (100 nM–1 mM) were added, and incubated for another 1 h on ice. Mean fluorescent intensity values were measured by flow cytometry. Data were analyzed using Prism 7.0.

[2] = biological target: T2, wild-type (WT) and mutant FPR2 (Homo sapiens, UniProt P25090, S211L)
T2 construct: expressed in transfected cells; host or cells: HEK293F
T2 sequence (P25090 other isoform, or with tags, fused parts or gaps S211L): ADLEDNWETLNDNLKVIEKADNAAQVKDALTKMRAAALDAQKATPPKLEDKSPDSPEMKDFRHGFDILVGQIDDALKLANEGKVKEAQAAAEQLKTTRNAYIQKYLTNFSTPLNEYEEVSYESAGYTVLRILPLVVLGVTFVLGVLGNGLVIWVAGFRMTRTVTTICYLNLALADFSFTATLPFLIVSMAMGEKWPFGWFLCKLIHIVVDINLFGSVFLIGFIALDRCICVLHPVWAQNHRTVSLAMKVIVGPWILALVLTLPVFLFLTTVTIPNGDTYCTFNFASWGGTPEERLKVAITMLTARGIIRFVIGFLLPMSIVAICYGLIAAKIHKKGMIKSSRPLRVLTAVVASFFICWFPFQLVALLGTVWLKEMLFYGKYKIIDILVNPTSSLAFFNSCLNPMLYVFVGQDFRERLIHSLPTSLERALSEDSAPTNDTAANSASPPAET
Method: as §1

[3] = biological target: T3, wild-type (WT) and mutant FPR2 (Homo sapiens, UniProt P25090, D281L); conditions: FPR2 D281L
T3 construct: expressed in transfected cells; host or cells: HEK293F
T3 sequence (P25090 whole entry D281L): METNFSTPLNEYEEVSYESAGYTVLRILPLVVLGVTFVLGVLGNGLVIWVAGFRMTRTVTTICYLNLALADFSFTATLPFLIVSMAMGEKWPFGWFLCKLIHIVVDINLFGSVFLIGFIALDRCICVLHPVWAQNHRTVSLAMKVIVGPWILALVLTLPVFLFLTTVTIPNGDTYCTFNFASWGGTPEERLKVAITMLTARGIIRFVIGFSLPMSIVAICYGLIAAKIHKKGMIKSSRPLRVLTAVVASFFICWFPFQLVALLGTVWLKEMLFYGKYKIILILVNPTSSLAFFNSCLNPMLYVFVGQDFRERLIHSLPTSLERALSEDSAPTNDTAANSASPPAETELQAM
Method: as §1

[4] = biological target: T4, wild-type (WT) and mutant FPR2 (Homo sapiens, UniProt P25090); conditions: FPR2 WT
T4 construct: expressed in transfected cells; host or cells: HEK293F
T4 sequence (P25090 1-351): T1 sequence (P25090 1-351 L81F) with F81L
Method: as §1

[5] = biological target: T5, wild-type (WT) and mutant FPR2 (Homo sapiens, UniProt P25090, F292A); conditions: FPR2 F292A
T5 construct: expressed in transfected cells; host or cells: HEK293F
T5 sequence (P25090 1-351 F292A): T1 sequence (P25090 1-351 L81F) with F81L, F292A
Method: as §1

[6] = biological target: T6, wild-type (WT) and mutant FPR2 (Homo sapiens, UniProt P25090, D281G); conditions: FPR2 D281G
T6 construct: expressed in transfected cells; host or cells: HEK293F
T6 sequence (P25090 1-351 D281G): T1 sequence (P25090 1-351 L81F) with F81L, D281G
Method: as §1

## CSCC[C@H](NC(=O)[C@H](Cc1ccc(O)cc1)NC(=O)[C@H](CCCCNC(=S)Nc1ccc2c(c1)C(=O)OC21c2ccc(O)cc2Oc2cc(O)ccc21)NC(=O)[C@@H](N)Cc1c[nH]c2ccccc12)C(=O)N[C@H](C(=O)N[C@H](CCSC)C(N)=O)C(C)C [WK(FITC)YMVm]
[1]
  Span (% of WT), saturation binding: 42 ± 4 % of WT
[1]; mean ± s.e.m., n=3, SEM
  Kd: 24.3 ± 8.4 nM
[2]; FPR2 crystallization construct
  Span (% of WT), saturation binding: 154 ± 21 % of WT
[2]; FPR2 crystallization construct (N-terminal bRIL, S211L, 5 C-terminal residues truncated), mean ± s.e.m., n=5, SEM
  Kd: 27.7 ± 5.6 nM
[3]
  Span (% of WT), saturation binding: 39 ± 11 % of WT
[3]; mean ± s.e.m., n=3, SEM
  Kd: 57.6 ± 14.0 nM
[4]
  Span (% of WT), saturation binding: 100 % of WT
[4]; mean ± s.e.m., n=3, SEM
  Kd: 24.0 ± 8.5 nM
[5]
  Span (% of WT), saturation binding: 54 ± 14 % of WT
[5]; mean ± s.e.m., n=3, SEM
  Kd: 42.5 ± 14.7 nM
[6]
  Span (% of WT), saturation binding: 39 ± 3 % of WT
[6]; mean ± s.e.m., n=4, SEM
  Kd: 34.3 ± 14.1 nM

Reference: PMC7058083, “Structural basis of ligand binding modes at the human formyl peptide receptor 2” (Nature Communications, 2020)
